Consider four compounds from DBAASP.

≈ marks a conversion by molar mass, not a printed value. Where “and” joins values, the source holds several entries; their conditions need not be identical. Equal entries are not always repeated. Bounds are passed on as bounds.

Among the test systems are Klebsiella pneumoniae; Escherichia coli ESBL; Vibrio cholerae CUN 09; Enterococcus faecium; Staphylococcus xylosus; Escherichia coli BL21; Acinetobacter baumannii; Botrytis cinerea; Enterococcus faecalis; Shigella flexneri EW-10; Salmonella enterica; Shigella sonnei EW-33; Escherichia coli JM109; Staphylococcus aureus; Citrobacter koseri; Bacillus subtilis 168; Candida krusei CK802/97; Escherichia coli B; Pseudomonas aeruginosa.

Holding throughout (assay): ≥ marks a high value that may be exact or a test limit, other limits are often not marked, values filed in µg/mL are converted to µM
The test system of test [1] is Pseudomonas aeruginosa CUN 4158-02.
For test [2], the system named is Acinetobacter baumannii ATCC 19606.
In test [3] the test system is Bordetella bronchiseptica CUN 11844-99.
Test [4] concerns Staphylococcus aureus ATCC 43300.
For test [5], the system named is Staphylococcus aureus ATCC 25923.
Test [6] deals with Staphylococcus aureus CUN 3792-99.
The subject of test [7] is Stenotrophomonas maltophilia CUN 3998-00.
For test [8], the system named is Pseudomonas aeruginosa ATCC 27853.
Test [9] has as its system Escherichia coli ATCC 25922.
Test [10] deals with Klebsiella pneumoniae KK3 9904.
The subject of test [11] is Candida albicans ATCC 90028.
For test [12], the system named is Staphylococcus aureus NCTC 8325.
Test [13] concerns Enterobacter cloacae NHTCC 53001.
The test system of test [14] is Salmonella typhimurium CCRC 12947.
Test [15] concerns Enterococcus faecium EFMY-28.
Test [16] relates to Staphylococcus aureus CCRC 12652.
Test [17] has as its system Klebsiella pneumoniae CCRC 10694.
The subject of test [18] is Escherichia coli ATCC 11775.
Test [19] deals with Enterococcus faecalis LS-101.
Test [20] deals with Bifidobacterium adolescentis.
Test [21] has as its system Staphylococcus aureus ATCC 12600.
Test [22] concerns Staphylococcus epidermidis ATCC 12228.
Test [23] concerns Escherichia coli NIHJ JC-2.
The subject of test [24] is Bacillus subtilis PCI 219.
The subject of test [25] is Staphylococcus aureus CCRC 15211.
The subject of test [26] is Lactobacillus delbrueckii subsp. bulgaricus.
In test [27] the test system is Staphylococcus aureus 1840.
Test [28] relates to Vibrio parahaemolyticus CCRC 10806.
For test [29], the system named is Candida albicans ATCC 10231.
Test [30] deals with Staphylococcus aureus FDA 209P.
Test [31] concerns Candida parapsilosis Z150/119/IDE99.
Test [32] relates to Candida glabrata CG196/98IDE.

In the case of `N=C(N)NCCC[C@H](NC(=O)CNC(=O)[C@H](CCCCN)NC(=O)[C@H](Cc1ccccc1)NC(=O)[C@H](CCCCN)NC(=O)[C@H](Cc1c[nH]c2ccccc12)NC(=O)[C@H](CCCNC(=N)N)NC(=O)[C@H](Cc1ccccc1)NC(=O)[C@H](CCCCN)NC(=O)[C@H](CCCCN)NC(=O)[C@H](Cc1ccc(O)cc1)NC(=O)[C@H](CCCNC(=N)N)NC(=O)[C@H](CCCNC(=N)N)NC(=O)CN)C(=O)N[C@@H](Cc1c[nH]c2ccccc12)C(=O)N[C@@H](Cc1ccccc1)C(=O)N[C@@H](Cc1c[nH]c2ccccc12)C(=O)N[C@@H](Cc1ccccc1)C(=O)NCC(=O)O` [GRRYKKFRWKFKGRWFWFG], the MIC was 12.1 µM (≈ 32 µg/mL) in [1]; 6.07 µM (≈ 16 µg/mL) in test [2]; 12.1 µM (≈ 32 µg/mL) with Klebsiella pneumoniae; at least 48.5 µM in test [3]; 3.03 µM (≈ 8 µg/mL) in test [4]; 3.03 µM (≈ 8 µg/mL) in [5]. Further, the MIC in [6] is 3.03 µM (≈ 8 µg/mL); in test [7] it was 12.1 µM (≈ 32 µg/mL); in test [8], 6.07 µM (≈ 16 µg/mL); against Escherichia coli ESBL, 6.07 µM (≈ 16 µg/mL); in [9], 6.07 µM (≈ 16 µg/mL); against Vibrio cholerae CUN 09, 6.07 µM (≈ 16 µg/mL).

On to `CC[C@H](C)[C@@H]1NC(=O)[C@H](CCCCN)NC(=O)[C@@H](NC(=O)[C@H](CCCCN)NC(=O)[C@H](C)NC(=O)[C@H](CCC(N)=O)NC(=O)[C@H](CC(=O)O)NC(=O)[C@H](CC(C)C)NC(=O)[C@H](CC(C)C)NC(=O)[C@H](CO)NC(=O)CNC(=O)CNC(=O)[C@@H](NC(=O)[C@H](CC(N)=O)NC(=O)[C@H](CCCCN)NC(=O)[C@H](Cc2ccccc2)NC(=O)[C@@H](NC(=O)[C@H](Cc2cnc[nH]2)NC(=O)[C@H](CCCCN)NC(=O)CNC(=O)[C@@H](NC(=O)[C@@H](NC(=O)[C@H](CCCCN)NC(=O)[C@H](CC(C)C)NC(=O)[C@@H](NC(=O)CNC(=O)[C@H](CCCCN)NC(=O)[C@H](CC(C)C)NC(=O)[C@@H](NC(=O)[C@H](CO)NC(=O)[C@H](CC(C)C)NC(=O)[C@H](CC(C)C)NC(=O)CN)C(C)C)C(C)C)[C@@H](C)O)[C@@H](C)O)[C@@H](C)CC)C(C)C)CSSC[C@@H](C(=O)O)NC(=O)[C@H](CCC(N)=O)NC(=O)CNC(=O)[C@H](CO)NC1=O` [GLLSVLKGVLKTTGKHIFKNVGGSLLDQAKCKISGQC], for which the MIC in [10] is 6 µM (≈ 23 µg/mL); in test [11], at least 100 µM; in [8], 3 µM (≈ 11.5 µg/mL); in [12] it was 25 µM (≈ 96 µg/mL); in test [13], 3 µM (≈ 11.5 µg/mL); in [9] it was 3 µM (≈ 11.5 µg/mL).

With `CC[C@H](C)[C@H](NC(=O)[C@H](CO)NC(=O)[C@H](CCCCN)NC(=O)[C@H](CC(C)C)NC(=O)[C@H](CCCCN)NC(=O)[C@@H](N)CC(C)C)C(=O)N[C@H](C(=O)N[C@@H](CO)C(=O)N[C@@H](Cc1c[nH]c2ccccc12)C(=O)N[C@@H](C)C(=O)N[C@@H](CCCCN)C(=O)N[C@@H](CCCCN)C(=O)N[C@H](C(=O)N[C@@H](CC(C)C)C(N)=O)C(C)C)C(C)C` [LKLKSIVSWAKKVL], the MIC in [14] is 19.8 µM (≈ 32 µg/mL); in test [15] it was 12.5 µM (≈ 20.2 µg/mL); in test [16], 9.92 µM (≈ 16 µg/mL); in test [17], at least 39.7 µM; in the test with Enterococcus faecium, at least 79.4 µM; against Staphylococcus xylosus, 0.31 µM (≈ 0.5 µg/mL). Moreover, the MIC in [18] is 31 µM (≈ 50 µg/mL); in test [19] it was 1.94 µM (≈ 3.13 µg/mL); in the test with Escherichia coli BL21, 3.51 µM (≈ 5.65 µg/mL); in test [20], at least 79.4 µM; against Acinetobacter baumannii, 1.05 µM and 1.24 µM; against Botrytis cinerea, 4.96 µM (≈ 8 µg/mL). In addition, the MIC in [21] was 3.1 µM (≈ 5 µg/mL); in the test on Klebsiella pneumoniae, above 15.5 µM; in [22], 3.87 µM (≈ 6.25 µg/mL); against Enterococcus faecalis, 6.63 µM (≈ 10.7 µg/mL); in [23], 7.75 µM (≈ 12.5 µg/mL); in test [24], 1.94 µM (≈ 3.13 µg/mL). Moreover, the MIC in the test with Shigella flexneri EW-10 was 3.87 µM (≈ 6.25 µg/mL); in test [25], 14 µM (≈ 22.6 µg/mL); in test [26], at least 79.4 µM; with Salmonella enterica, 19.8 µM (≈ 32 µg/mL); in test [27], 15.5 µM (≈ 25 µg/mL); against Shigella sonnei EW-33, 3.87 µM (≈ 6.25 µg/mL). Besides, the MIC in test [28] turned out to be 7.01 µM (≈ 11.3 µg/mL); in test [29], 15.5 µM (≈ 25 µg/mL); in the test with Escherichia coli JM109, 0.62 µM (≈ 0.999 µg/mL); against Staphylococcus aureus it was 8.25 µM (≈ 13.3 µg/mL); with Citrobacter koseri, 1.75 µM (≈ 2.83 µg/mL); in [30] it was 7.75 µM (≈ 12.5 µg/mL).

As to `CC[C@H](C)[C@H](NC(=O)[C@H](CC(C)C)NC(=O)[C@H](Cc1cnc[nH]1)NC(=O)CNC(=O)[C@H](CC(C)C)NC(=O)[C@@H](NC(=O)[C@H](CCCCN)NC(=O)[C@H](CCCCN)NC(=O)[C@H](Cc1c[nH]c2ccccc12)NC(=O)[C@H](CCSC)NC(=O)CN)[C@@H](C)CC)C(=O)N[C@@H](CCCN=C(N)N)C(N)=O` [GMWKKILGHLIR], the MIC was 0.9 µM (≈ 1.31 µg/mL) with Bacillus subtilis 168; 30 µM and 15 µM and 20 µM against Candida krusei CK802/97; 1.8 µM (≈ 2.61 µg/mL) against Escherichia coli B; 16.3 µM (≈ 23.6 µg/mL) against Pseudomonas aeruginosa; 30 µM and 15 µM in [31]; ≥ 40 µM and 25 µM and 30 µM in test [32]. The MIC against Staphylococcus aureus stood at 8.4 µM (≈ 12.2 µg/mL).

As usually defined, the MIC is the least concentration at which growth counts as inhibited.
